Test results from US5607691A, “Compositions and methods for enhanced drug delivery” (priority 1995, dated 1997).
Where a name gives a salt, the structure may show the parent alone.

Experiment: in vitro
Format: in vitro ADME, human
Details: Table 5; human serum, 37° C.; listed as O-indomethacinyl-(D,L-norcarnitine methyl ester)
Outline: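 Complex from 6 mM ethanol stock added to freshly defrosted human serum at 37° C. Aliquots quenched in 2% zinc sulfate, centrifuged, and supernatant analysed by reversed-phase C8 HPLC for % remaining by peak area. Half-life from slope of ln % remaining vs time.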
In the case of `COC(=O)CC(CN(C)C)OC(=O)Cc1c(C)n(C(=O)c2ccc(Cl)cc2)c2ccc(OC)cc12` (racemic) [3-O-(indomethacinoyl)-D,L-norcarnitine methyl ester], the “Serum Half-life” value was 4.3 h.

Same assay, conditions: human, serum
In the case of `CC(=O)[C@H]1CC[C@H]2[C@@H]3CC=C4C=C(OC(=O)C[N+](C)(C)C)CC[C@]4(C)[C@H]3CC[C@]12C.[Br-]` [progesterone-3-betainoyl enol ester, bromide salt], the “Serum Half-life” value was 0.0267 h.
With “2-(4-nitrophenyl)ethylamine choline chloride carbamate” the “In vitro Half-Life” value was 86 h and the “Serum Half-life” value was 86 h.

Same assay, conditions: human, serum, Table 5; human serum, 37° C.; read-out: Serum Half-life (converted)
`CC1OC(OC2CCC3(C)C(CCC4C3CC(OC(=O)CCC[N+](C)(C)C)C3(C)C(C5=CC(=O)OC5)CCC43O)C2)CC(O)C1OC1CC(O)C(OC2CC3OC(=O)OC3C(C)O2)C(C)O1` (centres unmarked) [digoxin-12-(4-trimethylaminobutyrate)-3'",4'"-cyclic carbonate, bromide salt] gave a half-life of 96 h.
Work on `CC1OC(OC2C(O)CC(OC3C(O)CC(OC4CCC5(C)C(CCC6C5CC(O)C5(C)C(C7=CC(=O)OC7)CCC65O)C4)OC3C)OC2C)CC(O)C1OC(=O)C1CCC[N+]1(C)C` (centres unmarked) [digoxin-4'"-stachydrine ester, chloride salt] yielded a half-life of 0.085 h.
Compound `CCCC(=O)OC[N+]1(CCCOc2ccc(F)cc2)CC[C@H](NC(=O)c2cc(Cl)c(N)cc2OC)[C@H](OC)C1` (relative stereo) [cisapride-N-butyroyloxymethylammonio, iodide salt] has a half-life of 0.127 h.
In the case of `COc1cc(N)c(Cl)cc1C(=O)N[C@H]1CC[N+](CCCOc2ccc(F)cc2)(COC(C)=O)C[C@H]1OC` (relative stereo) [cisapride-N-acetoxymethylammonio, iodide salt], the half-life was 0.108 h.
`C[C@]12CC[C@@H]3c4ccc(O)cc4CC[C@H]3[C@@H]1CC[C@@H]2OC(=O)C[N+](C)(C)C` [3,17β-estradiol-17β-betaine ester, chloride salt] showed a half-life of 4.5 h.
For `C[C@H]1O[C@@H](O[C@H]2[C@@H](O)C[C@H](O[C@H]3[C@@H](O)C[C@H](O[C@H]4CC[C@@]5(C)[C@H](CC[C@@H]6[C@@H]5C[C@@H](OC(=O)OCOC(=O)CCCCC[N+](C)(C)C)[C@]5(C)[C@@H](C7=CC(=O)OC7)CC[C@]65O)C4)O[C@@H]3C)O[C@@H]2C)C[C@@H]2OC(=O)O[C@@H]21` [digoxin 12-(6-trimethylaminohexanoyloxymethyl carbonate)-3"',4"'-cyclic carbonate, bromide salt], the half-life was 2.8 h.
In the case of `CC(=O)O[C@H](CC(=O)OC1N=C(c2ccccc2Cl)c2cc(Cl)ccc2NC1=O)C[N+](C)(C)C` (some centres unmarked) [lorazepam-3-(O-acetylcarnitine) ester chloride salt], the half-life was 5.2 h.
Work on `C[C@H]1O[C@@H](O[C@H]2[C@@H](O)C[C@H](O[C@H]3[C@@H](O)C[C@H](O[C@H]4CC[C@@]5(C)[C@H](CC[C@@H]6[C@@H]5C[C@@H](OC(=O)c5cccnc5)[C@]5(C)[C@@H](C7=CC(=O)OC7)CC[C@]65O)C4)O[C@@H]3C)O[C@@H]2C)C[C@@H]2OC(=O)O[C@@H]21` [digoxin-12-nicotinate ester-3"',4"'-cyclic carbonate] yielded a half-life of 331 h.
`CC(=O)O[C@H](CC(=O)O[C@H]1CC[C@H]2[C@@H]3CCc4cc(O)ccc4[C@H]3CC[C@]12C)C[N+](C)(C)C` [17β-estradiol-17β-(O-acetyl-L-carnitine) ester] gave a half-life of 4 h.
`C[C@]12CC[C@H](OC(=O)OCC[N+](C)(C)C)C[C@H]1CC[C@@H]1[C@@H]2CC[C@]2(C)[C@@H](C3=CC(=O)OC3)CC[C@]12O` [digitoxigenin-3-(O-choline chloride carbonate) ester] showed a half-life of 0.227 h.
With `CC1OC(OC2CCC3(C)C(CCC4C3CC(OC(=O)CCCN(C)C)C3(C)C(C5=CC(=O)OC5)CCC43O)C2)CC(O)C1OC1CC(O)C(OC2CC3OC(=O)OC3C(C)O2)C(C)O1` (centres unmarked) [digoxin-12-[4-(N,N-dimethylamino)butyrate]-3"',4'"-cyclic carbonate, hydrochloride salt] the half-life was 24 h.
Work on `CC(=O)OC1CC(C(=O)OCCc2ccc([N+](=O)[O-])cc2)[N+](C)(C)C1` (centres unmarked) [betonicine-O-acetate 4-nitrophenethyl ester] yielded a half-life of 0.1 h.
In the case of `COc1ccc2c(c1)c(CCNC(C)=O)cn2C(=O)OCC[N+](C)(C)C` [melatonin-1-choline carbamate, bromide salt], the half-life was 15 h.
Compound `CCOC(=O)OC[N+]1(CCCOc2ccc(F)cc2)CC[C@H](NC(=O)c2cc(Cl)c(N)cc2OC)[C@H](OC)C1` (relative stereo) [cisapride-N-ethyoxycarbonyloxymethylammonio, iodide salt] has a half-life of 0.0733 h.
Compound `C#CC[N+](C)(COC(=O)C(C)(C)C)C(C)Cc1ccccc1` (centres unmarked) [deprenyl-N-pivaloyloxymethyl, iodide salt] has a half-life of 0.333 h.
Work on `COc1ccc2c(c1)c(CC(=O)OCOC(=O)CCCCCNC(=O)C[C@H](C[N+](C)(C)C)OC(C)=O)c(C)n2C(=O)c1ccc(Cl)cc1` [indomethacin 6-(O-acetyl-L-carnitinamido)hexanoyloxymethyl ester, chloride salt] yielded a half-life of 0.5 h.
`C[C@]12CC[C@@H]3c4ccc(OC(=O)OCC[N+](C)(C)C)cc4CC[C@H]3[C@@H]1CC[C@@H]2O` [3,17β-estradiol-3-choline carbonate, iodide salt] gave a half-life of 0.0256 h.
With `C#CC[N+](C)(COC(C)=O)C(C)Cc1ccccc1` (centres unmarked) [deprenyl-N-acetoxymethyl, bromide salt] the half-life was 0.07 h.
For `CC1OC(OC2C(C)OC(OC3C(C)OC(OC4CCC5(C)C(CCC6C5CC(O)C5(C)C(C7=CC(=O)OC7)CCC65O)C4)CC3OC(=O)OCOC(=O)CCCCC[N+](C)(C)C)CC2OC(=O)OCOC(=O)CCCCC[N+](C)(C)C)CC2OC(=O)OC12` (centres unmarked) [digoxin-3',3"-bis-(6-trimethylaminohexanoyloxymethyl carbonate)-3'",4'"-cyclic carbonate, bromide salt], the half-life was 10 h.
With `COC(=O)CC(CN(C)C)OC(=O)Cc1c(C)n(C(=O)c2ccc(Cl)cc2)c2ccc(OC)cc12` (racemic) [3-O-(indomethacinoyl)-D,L-norcarnitine methyl ester] the half-life was 4.28 h.
Compound `C#CC[N+](C)(COC(=O)c1ccccc1)C(C)Cc1ccccc1` (centres unmarked) [deprenyl-N-benzoyloxymethyl, iodide salt] has a half-life of 0.0833 h.
Work on `CC1OC(OC2C(C)OC(OC3C(C)OC(OC4CCC5(C)C(CCC6C5CC(O)C5(C)C(C7=CC(=O)OC7)CCC65O)C4)CC3OC(=O)OCC[N+](C)(C)C)CC2OC(=O)OCC[N+](C)(C)C)CC2OC(=O)OC12` (centres unmarked) [digoxin-3',3"-bis-(choline carbonate)-3'",4'"-cyclic carbonate, dibromide salt] yielded a half-life of 34 h.
For `C[C@H]1O[C@@H](O[C@H]2[C@@H](O)C[C@H](O[C@H]3[C@@H](O)C[C@H](O[C@H]4CC[C@@]5(C)[C@H](CC[C@@H]6[C@@H]5CC[C@]5(C)[C@@H](C7=CC(=O)OC7)CC[C@]65O)C4)O[C@@H]3C)O[C@@H]2C)C[C@H](O)[C@@H]1OC(=O)OCC[N+](C)(C)C` [digitoxin-4"'-(choline chloride) carbonate ester], the half-life was 0.0883 h.
`CCCCCCCCCCCC(=O)OCn1c(=O)c(F)cn(COC(=O)CCC[N+](C)(C)C)c1=O` [5-fluorouracil-1-(N-(4-trimethylammoniobutyroyloxymethyl)-3-(N-lauroxyoxymethyl), iodide salt] gave a half-life of 3.2 h.

Same assay, conditions: human, serum, untitled table of digoxin derivatives (position/substituent); assay not given; read-out: Half Life (converted)
`CC1OC(OC2CCC3(C)C(CCC4C3CC(OC(=O)CCC[N+](C)(C)C)C3(C)C(C5=CC(=O)OC5)CCC43O)C2)CC(O)C1OC1CC(O)C(OC2CC3OC(=O)OC3C(C)O2)C(C)O1` (centres unmarked) [digoxin-12-(4-trimethylaminobutyrate)-3'",4'"-cyclic carbonate, bromide salt] showed a half-life of 96 h.
`C[C@H]1O[C@@H](O[C@H]2[C@@H](O)C[C@H](O[C@H]3[C@@H](O)C[C@H](O[C@H]4CC[C@@]5(C)[C@H](CC[C@@H]6[C@@H]5C[C@@H](OC(=O)OCOC(=O)CCCCC[N+](C)(C)C)[C@]5(C)[C@@H](C7=CC(=O)OC7)CC[C@]65O)C4)O[C@@H]3C)O[C@@H]2C)C[C@@H]2OC(=O)O[C@@H]21` [digoxin 12-(6-trimethylaminohexanoyloxymethyl carbonate)-3"',4"'-cyclic carbonate, bromide salt] showed a half-life of 2.8 h.
In the case of `CC1OC(OC2C(C)OC(OC3C(C)OC(OC4CCC5(C)C(CCC6C5CC(O)C5(C)C(C7=CC(=O)OC7)CCC65O)C4)CC3OC(=O)OCOC(=O)CCCCC[N+](C)(C)C)CC2OC(=O)OCOC(=O)CCCCC[N+](C)(C)C)CC2OC(=O)OC12` (centres unmarked) [digoxin-3',3"-bis-(6-trimethylaminohexanoyloxymethyl carbonate)-3'",4'"-cyclic carbonate, bromide salt], the half-life was 10 h.

Experiment: not given
Details: in vivo; cited from earlier work
In the case of `CCn1cc(C(=O)O)c(=O)c2ccc(C)nc21` [Nalidixic acid], the absorption is given as “rapidly absorbed from the gastrointestinal tract”.
